The values below come from US7351744B2, “Naphthalene derivatives as termite repellents and toxicants” (Board of Supervisors of Louisiana State University and …, priority 2003, dated 2008).

Data set [1] can be described thus: Longevity and volatility of the eleven chemicals. Type of data set: physicochemical. To be noted: among the eleven chemicals tested.
A further data set deals with termites. Nature of the data set: Naphthalene-related compounds, choice of treated or untreated food or sand. Type of data set: in vivo. To be noted: no repellency up to this concentration; data not shown. The procedure: When termites were given a choice of treated or untreated food or sand, all four chemicals were repellents at concentrations of 40 μg/cm^2 treated filter paper or 100 mg/kg treated sand. […] Methoxynaphthalenes were more volatile than acetonaphthones and could spread more effectively into the untreated chambers. […] (Data not shown)

In data set [2] the test system is Formosan subterranean termites. The note with it: other tested naturally occurring compounds; cited from earlier work.

Where only a bound is given, the exact number is not on record here.

Regarding `CC(=O)c1cccc2ccccc12` [1′-acetonaphthone], in data set [1], the longevity entry was “highest longevity” and the volatility result was “lowest volatility”.
In the case of `c1ccc2ccccc2c1` [Napthalene, naphthalene], in the data set on termites, the concentration showing repellency was greater than 500 μg/cm^2.
In the case of `C/C=C(\C)C(=O)O[C@H]1C[C@@H](OC(C)=O)[C@@]2(C(=O)OC)CO[C@H]3[C@@H](O)[C@@](C)([C@]45O[C@@]4(C)[C@H]4C[C@@H]5O[C@@H]5OC=C[C@@]54O)[C@H]4[C@]1(CO[C@]4(O)C(=O)OC)[C@@H]32` [azadirachtin], the “concentration inhibiting tunneling and feeding behaviors” value in data set [2] is 500 mg/kg.
Take `C=C(C)[C@@H]1CCC2=CC(=O)C[C@@H](C)[C@]2(C)C1` [nootkatone]: in data set [2], the “concentration inhibiting tunneling and feeding behaviors” value is 100 mg/kg.
